These results are taken from patent US11584747B2, “Substituted pyridopyrimidinonyl compounds useful as T cell activators” (BRISTOL-MYERS SQUIBB COMPANY, priority 2019, dated 2023).

pIC50: −log10 of the molar value. Where two headings read alike, the source gives them in different places.

One experiment has as its target human DGKα (Homo sapiens (Human), UniProt P23743). As to the kind of experiment: DGKα ADPGLO assay (detergent/lipid micelle substrate). Format: biochemical. How it is done:
DGK Alpha ADPGLO (Truncated) IC50 (uM)
The detergent/lipid micelle was prepared by combining 15 g phosphatidylserine (Avanti 840035P) and 1 g diacylglycerol (8008110) and dissolving into 150 mL chloroform in a 2 L round bottom flask. Chloroform was removed under high vacuum by rotary evaporation. […] The lipid/detergent solution was split into 5 mL aliquots and stored at −80° C.
A general note: ADP-Glo turns the ADP formed in a reaction into a luminescent signal.

The target of the next experiment is human DGKζ (Homo sapiens (Human), UniProt Q13574). Briefly: DGKζ LIPGLO assay (extruded liposome substrate, ADP-Glo luminescence). In kind it is biochemical.
Chain of human DGKζ (Q13574 other isoform, or with tags, fused parts or gaps): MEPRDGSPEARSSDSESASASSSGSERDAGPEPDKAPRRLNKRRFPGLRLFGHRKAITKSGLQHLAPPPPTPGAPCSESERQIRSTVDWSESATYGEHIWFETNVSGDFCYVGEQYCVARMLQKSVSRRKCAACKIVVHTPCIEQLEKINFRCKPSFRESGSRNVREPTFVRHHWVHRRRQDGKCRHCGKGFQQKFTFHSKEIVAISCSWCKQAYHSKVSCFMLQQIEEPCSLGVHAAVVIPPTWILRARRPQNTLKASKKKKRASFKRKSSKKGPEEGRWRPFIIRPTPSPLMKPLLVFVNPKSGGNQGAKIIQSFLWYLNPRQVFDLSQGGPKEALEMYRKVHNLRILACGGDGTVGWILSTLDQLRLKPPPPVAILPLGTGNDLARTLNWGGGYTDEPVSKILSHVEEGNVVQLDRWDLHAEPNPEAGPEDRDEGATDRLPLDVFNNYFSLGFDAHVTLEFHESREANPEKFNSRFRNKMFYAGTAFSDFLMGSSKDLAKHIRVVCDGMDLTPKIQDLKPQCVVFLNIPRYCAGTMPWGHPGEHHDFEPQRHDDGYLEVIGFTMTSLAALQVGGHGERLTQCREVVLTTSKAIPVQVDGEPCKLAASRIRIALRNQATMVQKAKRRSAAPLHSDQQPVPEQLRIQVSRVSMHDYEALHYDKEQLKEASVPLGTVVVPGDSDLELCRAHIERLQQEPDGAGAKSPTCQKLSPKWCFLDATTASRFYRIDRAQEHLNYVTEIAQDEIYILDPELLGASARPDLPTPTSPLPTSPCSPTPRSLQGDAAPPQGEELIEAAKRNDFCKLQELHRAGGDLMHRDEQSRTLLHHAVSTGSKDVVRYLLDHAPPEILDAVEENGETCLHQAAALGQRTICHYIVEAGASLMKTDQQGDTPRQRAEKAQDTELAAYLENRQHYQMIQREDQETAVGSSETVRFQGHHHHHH
Setting [1] is: truncated DGK alpha, read-out: DGK alpha ADPGLO (Truncated) IC50.
Setting [2] is: liposome assay, read-out: DGK zeta LIPGLO IC50.
Setting [3] is: ADPGLO assay, read-out: DGK alpha ADPGLO IC50.
[4] abbreviates: liposome (LIPGLO) assay, read-out: DGK zeta (liposome assay) IC50.

Chain of human DGKα (P23743 whole entry, looked up, the tested form may be a part): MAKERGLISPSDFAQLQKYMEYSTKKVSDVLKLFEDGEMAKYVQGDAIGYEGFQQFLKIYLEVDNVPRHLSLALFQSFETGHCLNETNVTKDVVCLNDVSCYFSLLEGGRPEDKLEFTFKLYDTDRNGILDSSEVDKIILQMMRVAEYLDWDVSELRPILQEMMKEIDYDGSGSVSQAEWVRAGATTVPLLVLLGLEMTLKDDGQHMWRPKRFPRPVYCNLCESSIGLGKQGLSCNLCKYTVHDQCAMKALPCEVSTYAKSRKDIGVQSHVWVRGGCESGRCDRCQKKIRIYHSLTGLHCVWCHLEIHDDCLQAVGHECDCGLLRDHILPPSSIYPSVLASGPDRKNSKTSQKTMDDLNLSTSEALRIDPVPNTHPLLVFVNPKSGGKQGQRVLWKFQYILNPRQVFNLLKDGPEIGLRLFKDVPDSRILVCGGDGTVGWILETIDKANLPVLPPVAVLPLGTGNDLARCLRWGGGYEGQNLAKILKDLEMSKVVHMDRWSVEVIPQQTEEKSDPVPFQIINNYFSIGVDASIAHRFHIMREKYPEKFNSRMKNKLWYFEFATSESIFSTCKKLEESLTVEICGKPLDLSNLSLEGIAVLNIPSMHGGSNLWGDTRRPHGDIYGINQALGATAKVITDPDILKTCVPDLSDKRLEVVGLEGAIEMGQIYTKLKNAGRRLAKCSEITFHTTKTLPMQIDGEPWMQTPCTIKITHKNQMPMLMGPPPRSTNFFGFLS

Regarding `CCC(c1ccc(C2CC2)cc1)N1C[C@H](CC)N(c2nc(=O)n(C)c3ccc(C#N)nc23)C[C@H]1CC` (stereo partly drawn) [Example 200, 4-((2S,5R)-4-(1-(4-cyclopropylphenyl)propyl)-2,5-diethylpiperazin-1-yl)-1-methyl-2-oxo-1,2-dihydropyrido[3,2-d]pyrimidine-6-carbonitrile], the pIC50 (commonly the negative decadic logarithm of the IC50, by convention in mol/L) at human DGKα (setting [1]) is 7.92; at human DGKζ (setting [2]), 7.89.

Regarding `CC[C@H]1CN(C(C)c2ccc3oc(C4CC4)nc3c2)[C@H](CC)CN1c1nc(=O)n(C)c2ccc(C#N)nc12` (stereo partly drawn) [Example 254, 4-((2S,5R)-4-(1-(2-cyclopropylbenzo[d]oxazol-5-yl)ethyl)-2,5-diethylpiperazin-1-yl)-1-methyl-2-oxo-1,2-dihydropyrido[3,2-d]pyrimidine-6-carbonitrile], the pIC50 is 5.55 at human DGKα (setting [1]) and 5.67 on human DGKζ (setting [2]).

Consider `CC[C@@H]1CN(c2nc(=O)n(C)c3ccc(C#N)nc23)[C@@H](C)CN1C(c1nc(C2CC2)no1)C(C)C` (stereo partly drawn) [Example 366, 4-((2S,5R)-4-(1-(3-cyclopropyl-1,2,4-oxadiazol-5-yl)-2-methylpropyl)-5-ethyl-2-methylpiperazin-1-yl)-1-methyl-2-oxo-1,2-dihydropyrido[3,2-d]pyrimidine-6-carbonitrile], for which the negative-log IC50 (pIC50) at human DGKα (setting [3]) was 5.84; on human DGKζ (setting [4]) it was 6.21.

Take `CC[C@H]1CN(C(c2ccc(F)cc2)c2cccc(C(F)F)n2)[C@H](CC)CN1c1nc(=O)n(C)c2ccc(C#N)nc12` (stereo partly drawn) [Example 257, 4-((2S,5R)-4((6-(difluoromethyl)pyridin-2-yl)(4-fluorophenyl)methyl)-2,5-diethylpiperazin-1-yl)-1-methyl-2-oxo-1,2-dihydropyrido[3,2-d]pyrimidine-6-carbonitrile]: the pIC50 on human DGKα (setting [1]) was 6.77; on human DGKζ (setting [2]) it was 6.60.

As for `CCC(C1CCC(F)(F)CC1)N1C[C@H](C)N(c2nc(=O)n(C)c3ccc(C#N)nc23)C[C@H]1C` (stereo partly drawn) [Example 460, 4-((2S,5R)-4-(1-(4,4-difluorocyclohexyl)propyl)-2,5-dimethylpiperazin-1-yl)-1-methyl-2-oxo-1,2-dihydropyrido[3,2-d]pyrimidine-6-carbonitrile], the pIC50 was 4.94 at human DGKα (setting [3]) and 4.92 at human DGKζ (setting [4]).

Take `CC[C@H]1CN(C(C)c2ccc(CN3CCCCC3)cc2)[C@H](CC)CN1c1nc(=O)n(C)c2ccc(C#N)nc12` (stereo partly drawn) [Example 282, 4-((2S,5R)-2,5-diethyl-4-(1-(4-(piperidin-1-ylmethyl)phenyl)ethyl)piperazin-1-yl)-1-methyl-2-oxo-1,2-dihydropyrido[3,2-d]pyrimidine-6-carbonitrile]: the pIC50 at human DGKα (setting [1]) is 6.82; on human DGKζ (setting [2]) it was 5.94.

Turning to `CC[C@H]1CN(C(C)c2ccc(C3(C#N)CC3)cc2)[C@H](CC)CN1c1nc(=O)n(C)c2ccc(C#N)nc12` (stereo partly drawn) [Example 263, 4-((2S,5R)-4-(1-(4-(1-cyanocyclopropyl)phenyl)ethyl)-2,5-diethylpiperazin-1-yl)-1-methyl-2-oxo-1,2-dihydropyrido[3,2-d]pyrimidine-6-carbonitrile], the pIC50 is 6.54 at human DGKα (setting [1]) and 7.21 at human DGKζ (setting [2]).

On to `[2H]C([2H])([2H])n1c(=O)nc(N2C[C@@H](CC)N(C(C)c3ccc(C(F)(F)F)cc3)C[C@@H]2C)c2nc(C#N)ccc21` (single isomer, unassigned) [Example 420], for which the results for the pIC50 at human DGKα (setting [3]) and at human DGKζ (setting [4]) were 7.05 and 6.12, respectively.

Turning to `CC[C@H]1CN(C(C)c2ccc(C3(C)CC3)cc2)[C@H](CC)CN1c1nc(=O)n(C)c2ccc(C#N)nc12` (stereo partly drawn) [Example 218, 4-((2S,5R)-2,5-diethyl-4-(1-(4-(1-methylcyclopropyl)phenyl)ethyl)piperazin-1-yl)-1-methyl-2-oxo-1,2-dihydropyrido[3,2-d]pyrimidine-6-carbonitrile], the results for the pIC50 on human DGKα (setting [1]) and at human DGKζ (setting [2]) were 7.11 and 7.74, respectively.

Take `CC[C@H]1CN(C(C)c2ccc(CN3CCCCC3)cc2)[C@H](CC)CN1c1nc(=O)n(C)c2ccc(C#N)nc12` (stereo partly drawn) [Example 281, 4-((2S,5R)-2,5-diethyl-4-(1-(4-(piperidin-1-ylmethyl)phenyl)ethyl)piperazin-1-yl)-1-methyl-2-oxo-1,2-dihydropyrido[3,2-d]pyrimidine-6-carbonitrile]: the pIC50 on human DGKα (setting [1]) was 5.14; on human DGKζ (setting [2]), 4.36.

Turning to `CCOC(=O)[C@H]1C[C@@H]1Oc1ccc(C(C)N2C[C@H](CC)N(c3nc(=O)n(C)c4ccc(C#N)nc34)C[C@H]2CC)cc1` (stereo partly drawn) [Example 259, ethyl (1S,2S)-2-(4-(1-((2R,5S)-4-(6-cyano-1-methyl-2-oxo-1,2-dihydropyrido[3,2-d]pyrimidin-4-yl)-2,5-diethylpiperazin-1-yl)ethyl)phenoxy)cyclopropane-1-carboxylate], the values for the pIC50 at human DGKα (setting [1]) and on human DGKζ (setting [2]) were 5.66 and 5.74, respectively.

Take `CC[C@@H]1CN(c2nc(=O)n(C)c3ccc(C#N)nc23)[C@@H](C)CN1C(c1nnc(C2CC2)o1)C(C)C` (single isomer, unassigned) [Example 368]: the negative logarithm of the IC50 (pIC50) is 5.93 at human DGKα (setting [3]) and 5.65 on human DGKζ (setting [4]).

On to `COC[C@H]1CN(C(C)c2ccc(C(F)(F)F)cc2)[C@H](C)CN1c1nc(=O)n(C)c2ccc(C#N)nc12` (single isomer, unassigned) [Example 410], for which the negative logarithm of the IC50 (pIC50) on human DGKα (setting [3]) is 6.66; at human DGKζ (setting [4]), 5.63.

For the compound `CC[C@@H]1CN(c2nc(=O)n(C)c3ccc(C#N)nc23)[C@@H](C)CN1C(C)c1ccc(C(F)(F)F)c(CN(C)C)c1` (stereo partly drawn) [Example 352, 4-((2S,5R)-4-(1-(3-((dimethylamino)methyl)-4-(trifluoromethyl)phenyl)ethyl)-5-ethyl-2-methylpiperazin-1-yl)-1-methyl-2-oxo-1,2-dihydropyrido[3,2-d]pyrimidine-6-carbonitrile], the negative logarithm of the IC50 (pIC50) at human DGKα (setting [3]) was 4.83; at human DGKζ (setting [4]) it was 5.57.

With `CCOc1ccc(CN2C[C@H](C)N(c3nc(=O)n(C)c4ccc(C#N)nc34)C[C@H]2CC)cc1` [Example 310, 4-((2S,5R)-4-(4-ethoxybenzyl)-5-ethyl-2-methylpiperazin-1-yl)-1-methyl-2-oxo-1,2-dihydropyrido[3,2-d]pyrimidine-6-carbonitrile], the pIC50 at human DGKα (setting [3]) is 7.11; on human DGKζ (setting [4]) it was 6.55.

For `CCC(c1ccc(C2CC2)cc1)N1C[C@H](C)N(c2nc(=O)n(C)c3ccc(C#N)nc23)C[C@H]1C` (stereo partly drawn) [Example 379, 4-((2S,5R)-4-(1-(4-cyclopropylphenyl)propyl)-2,5-dimethylpiperazin-1-yl)-1-methyl-2-oxo-1,2-dihydropyrido[3,2-d]pyrimidine-6-carbonitrile], the pIC50 is 6.35 on human DGKα (setting [3]) and 5.44 on human DGKζ (setting [4]).

Take `CC[C@@H]1CN(c2nc(=O)n(C)c3ccc(C#N)nc23)[C@@H](C)CN1C(c1ccc(F)cc1)c1cccc(C(F)F)n1` (stereo partly drawn) [Example 316, 4-((2 S,5R)-4-((6-(difluoromethyl)pyridin-2-yl)(4-fluorophenyl)methyl)-5-ethyl-2-methylpiperazin-1-yl)-1-methyl-2-oxo-1,2-dihydropyrido[3,2-d]pyrimidine-6-carbonitrile]: the values for the negative logarithm of the IC50 (pIC50) at human DGKα (setting [3]) and at human DGKζ (setting [4]) were 7.06 and 7.51, respectively.

For `CC[C@H]1CN(C(C)c2ccc(CN3CCN(C)C(=O)C3)cc2)[C@H](CC)CN1c1nc(=O)n(C)c2ccc(C#N)nc12` (stereo partly drawn) [Example 287, 4-((2S,5R)-2,5-diethyl-4-(1-(4-((4-methyl-3-oxopiperazin-1-yl)methyl)phenyl)ethyl)piperazin-1-yl)-1-methyl-2-oxo-1,2-dihydropyrido[3,2-d]pyrimidine-6-carbonitrile], the negative-log IC50 (pIC50) was 6.68 at human DGKα (setting [1]) and 6.30 at human DGKζ (setting [2]).

On to `CC[C@H]1CN(C(C)c2ccc(C(F)(F)F)cc2)[C@H](CC)CN1c1nc(=O)n(C)c2ccc(COC)nc12` (single isomer, unassigned) [Example 424], for which the pIC50 on human DGKα (setting [3]) was 3.94; at human DGKζ (setting [4]), 5.34.

With `CC[C@H]1CN(C(C)c2ccc(C3(C#N)CC3)cc2)[C@H](CC)CN1c1nc(=O)n(C)c2ccc(C#N)nc12` (stereo partly drawn) [Example 264, 4-((2S,5R)-4-(1-(4-(1-cyanocyclopropyl)phenyl)ethyl)-2,5-diethylpiperazin-1-yl)-1-methyl-2-oxo-1,2-dihydropyrido[3,2-d]pyrimidine-6-carbonitrile], the pIC50 at human DGKα (setting [1]) is 6.12; at human DGKζ (setting [2]) it was 5.93.

As to `CC[C@@H]1CN(c2nc(=O)n(C)c3ccc(C#N)nc23)[C@@H](C)CN1C(C)c1ccc(CNC(=O)OC)cc1` (stereo partly drawn) [Example 359, Methyl (4-(1-((2R,5S)-4-(6-cyano-1-methyl-2-oxo-1,2-dihydropyrido[3,2-d]pyrimidin-4-yl)-2-ethyl-5-methylpiperazin-1-yl)ethyl)benzyl)carbamate], the pIC50 on human DGKα (setting [3]) was 7.62; on human DGKζ (setting [4]), 6.66.

Take `CCC(c1ccc(C(F)(F)F)cc1)N1C[C@H](CC)N(c2nc(=O)n(C)c3ccc(Cl)nc23)C[C@H]1CC` (single isomer, unassigned) [Example 422]: the pIC50 on human DGKα (setting [3]) is 6.64; on human DGKζ (setting [4]), 5.16.

On to `CCC(c1ccc(OC2CC2)cc1)N1C[C@H](C)N(c2nc(=O)n(C)c3ccc(C#N)nc23)C[C@H]1CC` (stereo partly drawn) [Example 311, 4-((2S,5R)-4-(1-(4-cyclopropoxyphenyl)propyl)-5-ethyl-2-methylpiperazin-1-yl)-1-methyl-2-oxo-1,2-dihydropyrido[3,2-d]pyrimidine-6-carbonitrile], for which the pIC50 was 7.89 on human DGKα (setting [3]) and 8.22 at human DGKζ (setting [4]).

On to `CCC(c1ccc(C2CC2)cc1)N1C[C@H](C)N(c2nc(=O)n(C)c3ccc(C#N)nc23)C[C@H]1CC` (stereo partly drawn) [Example 301, 4-((2S,5R)-4-(1-(4-cyclopropylphenyl)propyl)-5-ethyl-2-methylpiperazin-1-yl)-1-methyl-2-oxo-1,2-dihydropyrido[3,2-d]pyrimidine-6-carbonitrile], for which the negative logarithm of the IC50 (pIC50) on human DGKα (setting [1]) was 6.89; on human DGKζ (setting [2]) it was 6.37.
